Test results taken from the NIST ThermoML archive (doi:10.1016/j.fluid.2017.06.022).

Test: xn = mol fraction of the nth substance listed
Details: Liquid, Bellows volumetry

C=C [ethene] + Cc1ccccc1
Details	mass density [kg/m3]
421 K, 37600 kPa, x1 = 0.3067	688.2
421 K, 44700 kPa, x1 = 0.3067	698
421 K, 51000 kPa, x1 = 0.3067	705.4
421 K, 58300 kPa, x1 = 0.3067	714.6
421 K, 63100 kPa, x1 = 0.3067	720.1
421 K, 66800 kPa, x1 = 0.3067	724
422.2 K, 2530 kPa, x1 = 0.1194	681.2
422.2 K, 2830 kPa, x1 = 0.1194	682.2
422.2 K, 3620 kPa, x1 = 0.1194	684.1
422.2 K, 5330 kPa, x1 = 0.1194	688.4
422.2 K, 7040 kPa, x1 = 0.1194	692.2
422.2 K, 7110 kPa, x1 = 0.1194	692.2
422.2 K, 10420 kPa, x1 = 0.1194	699.6
422.2 K, 13400 kPa, x1 = 0.1194	705.1
422.2 K, 17400 kPa, x1 = 0.1194	712.2
422.2 K, 20480 kPa, x1 = 0.1194	716.9
422.2 K, 22980 kPa, x1 = 0.1194	720.6
422.2 K, 24010 kPa, x1 = 0.1194	722.1
422.2 K, 30990 kPa, x1 = 0.1194	731.2
422.2 K, 37420 kPa, x1 = 0.1194	739.4
422.2 K, 44550 kPa, x1 = 0.1194	747.3
422.2 K, 51320 kPa, x1 = 0.1194	755.3
422.2 K, 58240 kPa, x1 = 0.1194	762.3
422.2 K, 63240 kPa, x1 = 0.1194	767.6
422.2 K, 67210 kPa, x1 = 0.1194	771.2
470.9 K, 3430 kPa, x1 = 0.1194	616.2
470.9 K, 3560 kPa, x1 = 0.1194	617.7
470.9 K, 4240 kPa, x1 = 0.1194	620.4
470.9 K, 4990 kPa, x1 = 0.1194	623.6
470.9 K, 5950 kPa, x1 = 0.1194	627.5
470.9 K, 7310 kPa, x1 = 0.1194	631.9
470.9 K, 10590 kPa, x1 = 0.1194	642.6
470.9 K, 14000 kPa, x1 = 0.1194	652.4
470.9 K, 16940 kPa, x1 = 0.1194	659.8
470.9 K, 24260 kPa, x1 = 0.1194	676.6
470.9 K, 31240 kPa, x1 = 0.1194	690.3
470.9 K, 37460 kPa, x1 = 0.1194	701.1
470.9 K, 41500 kPa, x1 = 0.1194	707.1
470.9 K, 44850 kPa, x1 = 0.1194	712.2
470.9 K, 51420 kPa, x1 = 0.1194	720.6
470.9 K, 58440 kPa, x1 = 0.1194	729.1
470.9 K, 62650 kPa, x1 = 0.1194	733.4
470.9 K, 67380 kPa, x1 = 0.1194	738.3
475.1 K, 7800 kPa, x1 = 0.3067	540.4
475.1 K, 8600 kPa, x1 = 0.3067	545.2
475.1 K, 9400 kPa, x1 = 0.3067	551
475.1 K, 10600 kPa, x1 = 0.3067	557.2
475.1 K, 12100 kPa, x1 = 0.3067	565.4
475.1 K, 14000 kPa, x1 = 0.3067	572.7
475.1 K, 17400 kPa, x1 = 0.3067	586
475.1 K, 20700 kPa, x1 = 0.3067	598.4
475.1 K, 24300 kPa, x1 = 0.3067	609
475.1 K, 30800 kPa, x1 = 0.3067	625.7
475.1 K, 37500 kPa, x1 = 0.3067	640.8
475.1 K, 44500 kPa, x1 = 0.3067	654.3
475.1 K, 51800 kPa, x1 = 0.3067	666.5
475.1 K, 58100 kPa, x1 = 0.3067	676.2
475.1 K, 63100 kPa, x1 = 0.3067	682.6
475.1 K, 67400 kPa, x1 = 0.3067	687.7
519 K, 4500 kPa, x1 = 0.1194	541.1
519 K, 5100 kPa, x1 = 0.1194	547.1
519 K, 6120 kPa, x1 = 0.1194	555.5
519 K, 7100 kPa, x1 = 0.1194	562.7
519 K, 8870 kPa, x1 = 0.1194	573.5
519 K, 10630 kPa, x1 = 0.1194	583
519 K, 13940 kPa, x1 = 0.1194	597.1
519 K, 14140 kPa, x1 = 0.1194	598.2
519 K, 17480 kPa, x1 = 0.1194	610.1
519 K, 24180 kPa, x1 = 0.1194	630.3
519 K, 31210 kPa, x1 = 0.1194	647.7
519 K, 38050 kPa, x1 = 0.1194	662.1
519 K, 44340 kPa, x1 = 0.1194	674.3
519 K, 51320 kPa, x1 = 0.1194	686.5
519 K, 51390 kPa, x1 = 0.1194	686.5
519 K, 58160 kPa, x1 = 0.1194	697.1
519 K, 63090 kPa, x1 = 0.1194	704.6
519 K, 66990 kPa, x1 = 0.1194	709.7
519.3 K, 8400 kPa, x1 = 0.3067	448
519.3 K, 8600 kPa, x1 = 0.3067	455.1
519.3 K, 9400 kPa, x1 = 0.3067	472
519.3 K, 10500 kPa, x1 = 0.3067	482.9
519.3 K, 12000 kPa, x1 = 0.3067	499.7
519.3 K, 13800 kPa, x1 = 0.3067	513.9
519.3 K, 14100 kPa, x1 = 0.3067	515.9
519.3 K, 15900 kPa, x1 = 0.3067	525.1
519.3 K, 17200 kPa, x1 = 0.3067	535.5
519.3 K, 20900 kPa, x1 = 0.3067	553.6
519.3 K, 24100 kPa, x1 = 0.3067	565.7
519.3 K, 31300 kPa, x1 = 0.3067	589.3
519.3 K, 37800 kPa, x1 = 0.3067	605
519.3 K, 44900 kPa, x1 = 0.3067	621.2
519.3 K, 51600 kPa, x1 = 0.3067	636.4
519.3 K, 58300 kPa, x1 = 0.3067	647.5
519.3 K, 63100 kPa, x1 = 0.3067	656.6
519.3 K, 67100 kPa, x1 = 0.3067	662.7
